# Laboratory results reported in patent publication US10195284B2, “Compositions and methods for controlled localized delivery of bone forming therapeutic agents” (University of Rochester, priority 2013, dated 2019).
# Several values for one entry are separate records, joined by “and”; a condition that tells them apart may be missing. Identical values can stand only once. Like-named read-outs stand apart in the source and are kept apart here. Ends that are not written are not given here.
# Columns and labels:
# TRAP protein = molecular target: T1, TRAP protein (Homo sapiens, UniProt P13686); assay: SPR affinity of peptide-functionalized polymers for TRAP, initial rate analysis of sensorgrams; format: binding; conditions: for SPR binding response to TRAP: sensorgrams
# T1 sequence (P13686 22-325): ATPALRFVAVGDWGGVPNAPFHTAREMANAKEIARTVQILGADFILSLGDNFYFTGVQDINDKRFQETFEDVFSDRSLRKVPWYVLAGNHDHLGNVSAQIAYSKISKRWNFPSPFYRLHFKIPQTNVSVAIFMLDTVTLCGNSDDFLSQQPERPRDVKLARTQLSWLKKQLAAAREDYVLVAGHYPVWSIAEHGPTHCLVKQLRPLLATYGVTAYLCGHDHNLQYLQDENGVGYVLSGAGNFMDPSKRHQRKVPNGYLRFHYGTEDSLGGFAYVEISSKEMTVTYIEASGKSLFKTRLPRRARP
# Experimental: Surface plasmon resonance (SPR) is used to assess the affinity of peptide-functionalized polymers for TRAP. Series S Sensor CM5 Chips are functionalized with TRAP via 1-ethyl-3-(3-dimethylaminopropyl) carbodiimide (EDC)/N-hydroxysuccinimide (NHS) chemistry. Briefly, the chips, which have a carboxymethylated dextran functionality, are activated through the introduction of NHS and EDC. After activation, TRAP protein, at 30 μg/mL in sodium acetate (pH=5), is introduced to the surface. Ethanolamine-hydrochloric acid is used to quench unreacted carboxysuccinimide groups. Polymers are dissolved in running buffer of PBS with 0.005% Tween20. Polymers are analyzed in duplicate at different concentrations. Surface regeneration is achieved using 1-10 mM NaOH solutions as necessary. […] Sensorgram data (FIG. 22) are exported from the SPR evaluation software after smoothing data of injection events and analyzed. Response units (RU) are converted into concentrations for rate analysis using the equation: S[M]=RU/60000 MW
# Where S is the concentration of polymer bound to the TRAP-functionalized surface and MW is the molecular weight of the polymer. The binding rates of polymers to TRAP are determined in the initial linear portion of association, within two seconds of the start of injection. The reciprocals of binding rates are plotted against the reciprocals of polymer concentrations to obtain a linear relationship, generalized in the equation: Vi^−1=KDSi^−1Vm^−1Vm^−1
# Where Vi is the binding rate for each i concentration of polymer and Vm is the maximum binding rate of polymer to TRAP. This relationship identifies the KD for each polymer (Table 4). Only TBP-functionalized polymers show affinity for TRAP (FIG. 22), as control (SCP-functionalized and PEG) polymer show no positive binding response (FIG. 23A through FIG. 23C).
# [1] = molecular target: T2, tartrate-resistant acid phosphatase (TRAP) (Homo sapiens, UniProt P13686); assay: Surface plasmon resonance (SPR) affinity of peptides and peptide-functionalized polymers for TRAP, binding-curve fit
# T2 sequence (P13686 22-325): T1 sequence (P13686 22-325)
# Experimental: Surface plasmon resonance (SPR) is used to assess the affinity of peptides for TRAP. Series S Sensor CM5 Chips are functionalized with TRAP via 1-ethyl-3-(3-dimethylaminopropyl) carbodiimide (EDC)/N-hydroxysuccinimide (NHS) chemistry. Briefly, the chips, which have a carboxymethylated dextran functionality, are activated through the introduction of NHS and EDC. After activation, TRAP protein, at 30 μg/mL in sodium acetate (pH=5), is introduced to the surface. Ethanolamine-hydrochloric acid is used to quench unreacted carboxysuccinimide groups. Peptides are dissolved in running buffer of PBS with 0.005% Tween20. Peptides are analyzed in duplicate at different concentrations. Surface regeneration is achieved using a combination of 1 and 2 M NaCl and 1-50 mM NaOH solutions as necessary.
# In SPR, the binding of any molecules to the surface of the sensor chips results in a change in the angle of incident light reflection, allowing highly-sensitive detection of miniscule amounts of ligand binding to the surface. Target affinity can be determined by introducing increasing concentrations of the ligand to the surface. Higher concentrations of samples elicited larger responses. The binding response was measured and plotted against concentration (FIG. 4), allowing for a fitting of the data by a binding curve. From this fitting, values such as KD can be determined. Through this technique, the affinity of TBP and SCP was analyzed. […] While not wishing to be bound by any particular theory, a possible, but improbable, cause for difference in affinity is the inclusion of the glycine residue on the carboxylic end of the synthesized peptide used herein. Despite this addition, the order of the original sequence is preserved, and glycine is a small, uncharged and nonpolar amino acid. […] In prior studies using phage display, five copies of the peptide are present and exposed (Sheu et al., 2002, Journal of Bone and Mineral Research, 17(5):915-922). Therefore, part of the higher affinity seen in the phage display experiments could be due to the multivalent nature of the peptide on the phage.
# Quantitative analyses of peptide and polymer affinities were performed using SPR. […] The binding of any molecules to the surface of the sensor chips results in a change in the angle of incident light reflection, allowing highly-sensitive detection of miniscule amounts of ligand binding to the surface. Target affinity can be determined by introduction of increasing concentrations of the molecule to the surface (FIG. 38A and FIG. 38B). Typically higher concentrations of samples elicited larger responses, with a larger response from polymers at lower concentrations in comparison to the TBP alone. […] Furthermore, polymer samples required the application of regeneration buffers, ranging from a mild buffer of 500 mM NaCl to a harsher buffer of 5 mM NaOH, to return the signal to previous levels. The binding response is measured and plotted against concentration, allowing for a fitting of the data by a binding curve. From this fitting, values such as the dissociation constant (KD) value can be determined. Through this technique, the affinity of peptides and peptide-functionalized polymers were analyzed. […] However, inclusion of peptide functionalities results in substantial increases in TRAP affinities (KD˜7.1-21 μM). […] While not wishing to be bound by any particular theory, a possible, but improbable, cause for difference in affinity is the inclusion of the glycine residue on the carboxylic end of the synthesized peptide used herein. Despite this addition the order of the original sequence is preserved and glycine is a small, uncharged and nonpolar amino acid. […] In prior studies using phage display, five copies of the peptide are present and exposed (Sheu et al., 2002, Journal of Bone and Mineral Research, 17(5): 915-922). Therefore part of the higher affinity seen in the phage display experiments could be due to the multivalent nature of the peptide on the phage. […]
# [2] = system: Mouse osteoblasts (MC3T3E1); assay: Cytocompatibility of peptide-functionalized polymers, Picogreen DNA assay; format: cell-based; conditions: 0.1 mM and 10 mM, 7 days, normalized to media alone
# Experimental: Mouse osteoblasts (MC3T3E1) were maintained in alpha minimum essential media (α-MEM, Gibco), containing 10% fetal bovine serum (FBS, Invitrogen) and 1% penicillin-streptomycin-fungizone at 37° C. and 5% CO2. Cells were utilized at passage 5. To assess the cytocompatibility of peptide-functionalized polymers, cells were seeded in a 48 well plates at 10,000 cells/well and allowed to adhere overnight. Cells were treated with media alone or with peptide or peptide-functionalized polymers (0.1 mM and 10 mM) for 7 days, with media exchanges every two days. These concentrations employed are far higher than expected to be necessary for future uses and allowed for isolation of the maximum tolerated doses in vitro. After seven days of exposure, cells were washed, lysed by sonication, and analyzed for DNA concentration using the Picogreen Assay (Invitrogen). Results were normalized to cells treated with media alone.
# [3] = system: β-catenin and ALP in osteoblasts; assay: BIO treatment of osteoblasts, β-catenin levels and ALP production; format: cell-based; conditions: 24 hours treatment
# Experimental: Data represents mean±standard deviation for 3 trials. *p<0.05 versus control, #p<0.05 versus 2 μM BIO (n=5).
# Several BIO-releasing polymers that are the correct molecular weight to enhance circulation time and avoid renal clearance have been successfully synthesized. […] Finally, released BIO biological activity is confirmed versus the free, unconjugated molecule and rescue of β-catenin signaling in osteoblasts is verified.
# [4] = Vougogiannopoulou et al., 2008; cited from earlier work
# β-catenin in MSCs = assay: β-catenin agonism and cellular uptake of NPs in MSCs; format: cell-based; conditions: over 5 days of treatment
# Experimental: To investigate the intracellular accessibility of this NPs, polymers were labeled with fluorescein isothiocyanate (FITC) fluorophore and incubated with MSCs (FIG. 44B). […] To validate β-catenin agonism of NP delivered GSK3β inhibitor XXVII, cells were treated with free GSK3β inhibitor XXVII and NP delivered GSK3β inhibitor XXVII.
# [5] = Bone resorption pit binding of fluorescently labeled peptides, confocal imaging; set-up: species or system human; conditions: fluorescently labeled peptide, overnight incubation
# Experimental: Equal concentrations of fluorescently labeled TBP and SCP are prepared in 1× phosphate-buffered saline (PBS). Bone wafers are cut from cortical bone obtained from the femur of a human donor cadaver and incubated in peptide solutions overnight, washed twice with 1×PBS, and then visualized via confocal imaging. Stacked sections are compressed into 2D images to allow for qualitative analysis as in FIG. 3A through FIG. 3D. […] Qualitatively, no binding of SCP is detected (FIG. 3D).
# [6] = system: areas with cathepsin K and osteoclast activity at calvarial defect; assay: Co-localization of polymers to actively remodeling bone, two-photon microscopy of cranial window defect; format: in vivo, mice; conditions: 5 mg kg^−1 intraperitoneal, imaged thirty minutes later
# Experimental: A thinned-skull cranial window is produced in mice as previously described (Yang et al., 2010, Nat Protoc 5:201). Briefly, a 500-μm diameter defect is made in the skull of mice and covered with a glass coverslip. The night before imaging, mice are injected intraperitoneal with 100 μL reconstituted cathepsin K probe in 1×PBS, prepared according to the manufacturer's protocol. At times of 3 and 8 days post-procedure, 5 mg kg^−1 of fluorescently-labeled pTBP, pSCP, or PEG in saline is injected intraperitoneal and imaged thirty minutes later using two-photon microscopy (Olympus Fluoview). Cathepsin K, a cysteine protease, is secreted by osteoclasts; therefore, TRAP is expected to be present in areas with cathepsin K activity. […] Bone drilling defects have been used previously to investigate osteoclast activity, with osteoclast accumulation at the defect evident from positive TRAP staining (Tanaka et al., 2010, J Biomed Mater Res, 93A(2): 469-474). […] Other live imaging modalities and sections of sacrificed mice are used to track biodistribution to other organs. Since the amino acid sequence of human, mouse, and rat TRAP is 89-94% homologous (Lamp and Drexler, 2000, Leukemia Lymphoma, 39(5-6): 477-484), it is probable that TBP-functionalized polymer therapeutic affinity to TRAP in mice can be translated into humans.
# [7] = Bone targeting of fluorescently labeled polymer therapeutics on osteoclast-resorbed bone wafers; format: binding, bovine
# Experimental: Bovine cortical bone is cut into 5-mm square, 0.5-mm thick wafers using a low speed saw with a diamond wafering blade. Bone wafers are boiled in ddH2O for 15 minutes, placed in 96-well plates, sterilized in 70% ethanol for half an hour on each side, washed thrice in 1×PBS, and incubated in alpha minimum essential medium (α-MEM) for at least 1 hour at 37° C. before cell seeding.
# Monocytes are freshly isolated from the spleens of mice, filtered twice with a 40 μm cell strainer, collected via centrifugation (5 minutes, 1000 rpm), and re-suspended in sterile filtered mouse red blood cell lysis buffer for 10 minutes at room temperature. After neutralizing lysis buffer with 1×PBS, monocytes are collected via centrifugation and washed in α-MEM containing 10% fetal bovine serum, 1% penicillin-streptomycin-fungizone, 1% GlutaMAX, and 1% non-essential amino acids before re-suspension in medium containing 100 ng mL^−1 M-CSF conditioned medium (Takeshita et al., 2000, J Bone Miner Res 15:1477). Monocytes are seeded in 96-well plates on the tissue culture surface or on prepared bovine cortical bone wafers at 2×10^5 cells well^−1 (1×10^6 cells mL^−1). After 3 days of incubation at 37° C. and 5% CO2, medium is supplemented with 1 ng mL^−1 receptor activator of nuclear factor κB ligand (RANKL) to induce osteoclast differentiation. […]
# [8] = TRAP-functionalized CM5 chip, n = 2, Ave. ± StDev, read-out: KD
compound,measurement,setting,value
10% SCP (VPVGTLSYLKLTG) [reference compound],SPR binding response to TRAP,TRAP protein,negative responses
10% TBP (TPLSYLKGLVTVG),SPR binding response to TRAP,TRAP protein,positive response
10% peptide-functionalized polymer (TPLSYLKGLVTVG),Kd,[1]; [8],12.7 µM
same,cytocompatibility / cytotoxic effects,[2],worst cytocompatibility of all polymers tested
20% SCP (VPVGTLSYLKLTG) [reference compound],SPR binding response to TRAP,TRAP protein,negative responses
20% TBP (TPLSYLKGLVTVG),Kd,TRAP protein; initial rate analysis of SPR sensorgrams,70 µM
20% peptide-functionalized polymer (TPLSYLKGLVTVG),Kd,[1]; [8],7.5 µM
"O=C1Nc2cc(Br)ccc2/C1=C1/Nc2ccccc2/C1=N\O [BIO, 6-bromoindirubin-3′-oxime]",ALP production,[3]; analyzed 7-days after treatment,increased
same,β-catenin levels,[3]; just after treatment,increased
same,water solubility,[4],poor water solubility
"CN1CCN(S(=O)(=O)c2ccc(-c3cnc(N)c(C(=O)Nc4cccnc4)n3)cc2)CC1 [GSK3β inhibitor XXVII, 3-amino-6-{4-[(4-methyl-1-piperazinyl)sulfonyl]phenyl}-N-(3-pyridinyl)-2-pyrazinecarboxamide]",β-catenin agonism / activation,β-catenin in MSCs,potent agonist of β-catenin
H-TPLSYLKGLVTVG [TBP],Kd,"[1]; binding-curve fit, read-out: KD for TRAP",~200 µM and ~700 µM
same,Kd,[1]; read-out: affinity for TRAP measured with SPR,795 µM
same,binding to bone resorption pits,[5],specific binding
TBP-functionalized polymer therapeutics (TPLSYLKGLVTVG),colocalization with cathepsin K and osteoclast activity,[6],colocalize to areas with cathepsin K and osteoclast activity
same,localization to resorption pits,"[7]; resorbed bone wafers, fluorescently labeled",localize to resorption pits
same,affinity for untreated bone,[7]; untreated bone wafers,No affinity
"scrambled control peptide, VPVGTLSYLKLTG (SEQ ID NO: 2) (VPVGTLSYLKLTG-OH; also: methacrylamide introduced on amine end for polymer incorporation) [SCP, reference compound]",affinity for TRAP measured with SPR,[1],no affinity
same,KD for TRAP,[1]; binding-curve fit,did not enable fitting of a binding curve or calculations of affinity
same,binding to bone resorption pits,[5],no binding
